Read-outs that look alike come from different tables or passages of the source. Marks after values point to notes of the source that are not given here.

Details of series [1]: ε × 10^−4: unit not given beside the values. The following applies: cited from earlier work.
Series [2] relates to living mammalian cells (PtK2). The series can be described thus: Membrane-permeation experiments in living cells, epifluorescence microscope. The format is cell-based. The following applies: 15 minutes. As for the experimental part: FIG. 9. Membrane-permeation experiments of the presented dyes. Living mammalian cells (PtK2) were incubated for 15 minutes with a 50 μg dye/ml solution. The subcellular localization of the dye was imaged in an epifluorescence microscope. A: 46-H—CH2 CF3—H—H (16); B: 42-COOH (15); C: 23; D: 37-Me-Me-H (27); E: 42-H (14)-methylester; F: 33-H—H (18).
The most important prerequisite for fluorophores used in these labeling strategies is that sufficient amounts of it need to pass cellular membrane(s) to reach the target protein. In order to asses the permeability of the cell membrane to the fluorescent dyes described in the presented invention, living mammalian cells (PtK2) previously grown overnight on cover slips, were first subjected to either 500 μg dye/ml or 50 μg dye/ml in growth medium for 15 minutes. (The amount of dye used for labeling of SNAP-fusion proteins is below 5 μg dye/ml.) Then, the cells were washed with growth medium (without dye) for 15 minutes, and imaged using an epifluorescence microscope.

A short description of series [3]: Spectral properties of the fluorinated rhodamines (absorption, emission, quantum yield, lifetime). The format is physicochemical.
Text: Extinction coefficients (of the long wavelength maximum) which are lower than ca. 8×10^4 M^−1 cm^−1 indicate the presence of the closed non-fluorescent form.
Series [4] is described as follows: Ground state depletion (GSDIM) pump-probe measurements in PVA matrix. The format is physicochemical. The following applies: for λem / λex: PVA matrix table; for Γfl, remaining fluorescence after 5 measurement cycles / Rfl, t=0, residual fluorescence after the pump-pulse: PVA matrix; for Γfl, remaining fluorescence after 5 measurement cycles: at one spot with the given power density; for Rfl, t=0, residual fluorescence after the pump-pulse: pump-pulse power density per dye 14-110 kW/cm^2. An excerpt:
In this method, “off” and “on” switching of the fluorescence is achieved by transiently shelving the fluorophores into a meta-stable dark state. Upon the return of only a few isolated single molecules to the fluorescent singlet state, positions of these single light emitting spots can be imaged on a camera and localized with high precision. Upon repeating this procedure and acquiring many pictures, a super-resolution image can be reconstructed from the localized positions. A prerequisite of this method is that >70% of the ensemble of the applied fluorescent dyes can be shelved into a dark state at a time (to ensure the detection of isolated fluorescent spots at a time in a densely labeled sample) and that the fluorophores are bright enough, i.e., that they emit enough photons while being in the singlet on-state (to ensure high precision of localization).
Switching off of the laser leads to a recovery of the fluorescence ensemble within a characteristic recovery time of 150-450 ms (Table 5), indicating the shelving into a metastable dark state. The measurements were performed in a pump-probe mode, i.e., the residual level of fluorescence was probed with I<100 W/cm^2 for 0.5 ms after strong irradiation for 10 ms with the given laser intensity in Table 5.
Furthermore, recovery of the fluorescence can be accelerated by addition of UV light, which leads to an optically-induced depopulation of the dark states. Already 2-3 kW/cm^2 of 375 nm light recovers the fluorescence within an irradiation period of 0.5 ms. […] The accelerated recovery is important for samples with low density of labels, where the addition of UV light and thus acceleration of the return from a dark state helps to accelerate image acquisition. Photostabilities of the studied fluorescent dyes under the GSDIM conditions are different: 15-50 pump-probe cycles with a pump intensity of 14-110 kW/cm^2 bleach 30-95% of the whole ensemble.

[5] abbreviates: solvent not stated, spectra pH-dependent at pH < 5.

As to 5(6)-carboxyrhodamine 110 [Compound 2], in series [1] (MeOH), the “ε × 10^−4” value is listed as 7.8, the λem is given as 532 nm and the λmax was 504 nm.
For the compound `Nc1cc2c(cc1Cl)C1(OC(=O)c3ccccc31)c1cc(Cl)c(N)cc1O2` [Compound 5], the “shift of the absorption and emission curves to the red” value in series [1] (compared with compounds 1, 3 and 4) was “ca. 10 nm”. For the same compound, in series [1] (water, pH = 7), the “ε × 10^−4” value is reported as 7.1, the λem was 525 nm and the λmax was 502 nm.
Regarding `Cl.N=c1ccc2c(-c3ccccc3C(=O)O)c3ccc(N)cc3oc-2c1` [Compound 1, rhodamine 110], in series [1] (basic EtOH), the Φfl is reported as 0.92 and the λem was 524 nm. Besides, in series [1] (water, pH = 7), the “ε × 10^−4” value is 8.3, the λem is 520** nm and the λmax is reported as 496 nm.
Consider “2,7-Difluoro-N,N′-bis(2,2,2-trifluoroethyl)-4,5-disulforhodamine [Compound 20]”, for which the “Structures stained in living cells” value in series [2] (50 μg dye/ml) is reported as “Dim cytoplasmatic stain with dots”. In addition, in series [2] (500 μg dye/ml), the “Structures stained in living cells” value was “Nearly no stain visible”. In addition, in series [3] (aqueous buffer at pH 7), the ABSORPTION ε came out at 54000 M⁻¹ cm⁻¹, the “ABSORPTION λMAX” value is reported as 506^a nm, the “EMISSION λMAX” value is 531^a nm and the ΦFL is on record as 0.66. Further, the τFL in series [3] (aqueous buffer at pH 7) worked out at 3.2 ns. In addition, in series [4], the λem came to 531 nm; the λex turned out to be 506 nm; the “Γfl, remaining fluorescence after 5 measurement cycles” value is given as 50%; the “Rfl, t=0, residual fluorescence after the pump-pulse” value came to 25%.
Consider `Nc1c(F)cc2c(c1S(=O)(=O)O)Oc1c(cc(F)c(N)c1S(=O)(=O)O)C21OC(=O)c2ccccc21` [Compound 12, 2,7-Difluoro-4,5-disulforhodamine], for which the “Structures stained in living cells” value in series [2] (500 μg dye/ml) is recorded as “Nearly no stain visible”. In series [3] (aqueous buffer at pH 7), the “ABSORPTION λMAX” value came out at 488 nm, the “EMISSION λMAX” value came to 512 nm, the ΦFL amounted to 0.89 and the τFL stood at 4.0 ns. Besides, in series [3] (methanol), the ABSORPTION ε is 42000 M⁻¹ cm⁻¹, the “ABSORPTION λMAX” value was 498 nm and the “EMISSION λMAX” value came out at 514 nm. In series [4], the λem came to 512 nm; the λex is 488 nm; the “Γfl, remaining fluorescence after 5 measurement cycles” value was determined as 20%; the “Rfl, t=0, residual fluorescence after the pump-pulse” value is recorded as 8%.
For the compound `O=C(O)c1ccc2c(c1)C1(OC2=O)c2ccc(NCC(F)(F)F)cc2Oc2cc(NCC(F)(F)F)ccc21` [15 (42-COOH), 5′-Carboxy-N,N′-bis(2,2,2-trifluoroethyl)rhodamine], in series [2] (50 μg dye/ml), the “Structures stained in living cells” value was “Dim cytoplasmatic stain with dots”. The “Structures stained in living cells” value in series [2] (500 μg dye/ml, listed as 42-COOH (15)) is given as “Bright cytoplasmatic stain visible”. Also, in series [3] (aqueous buffer at pH 7), the ABSORPTION ε stood at 85000 M⁻¹ cm⁻¹, the “ABSORPTION λMAX” value is 501 nm, the “EMISSION λMAX” value came to 525 nm and the ΦFL is given as 0.95. In series [3] (aqueous buffer at pH 7), the τFL came out at 4.1 ns. Further, in series [3] (methanol), the “ABSORPTION λMAX” value came out at 500 nm and the “EMISSION λMAX” value is 524 nm.
Take `O=C(O)CSc1c(F)c(F)c(C(=O)O)c(-c2c3cc(F)c(=O)cc-3oc3cc(O)c(F)cc23)c1F` [Compound 9]: in series [1] (compared with compounds 7 and 8), the bathochromic shift result was “ca. 10 nm”. Moreover, in series [1] (setting [5]), the “ε × 10^−4” value is 8.6, the λem was 526 nm and the λmax is recorded as 506 nm.
Turning to “5′ (6′)-Carboxy-2,7-difluoro-N,N′-dimethyl-N,N-bis(2,2,2-trifluoroethyl)rhodamine [Compound 26]”, the “Structures stained in living cells” value in series [2] (500 μg dye/ml) is reported as “Cellular stain visible; bright”. The “ABSORPTION λMAX” value in series [3] (a + b (aqueous buffer at pH 7 + methanol)) is listed as 523 nm; in series [3] (value for the closed form, methanol) it was 291 nm.
